Read-outs that look alike come from different tables or passages of the source.
Legend:
[1] = system: P. aeruginosa DA7232 (gyrA-T83I, parC-S80L); test: MIC / levofloxacin potentiation, fluoroquinolone-resistant strain; type: cell-based, Pseudomonas aeruginosa
Description: (§1) P. aeruginosa ATCC 27853 was obtained from the American Type Culture Collection (ATCC; Manassas, VA, USA). P. aeruginosa multidrug-resistant isolates were obtained from the CDC and FDA Antibiotic Resistance Isolate Bank (Atlanta, GA, USA). P. aeruginosa DA7232 (gyrA-T83I, parC-S80L) was a kind gift from Prof. Dan I. Andersson, Uppsala University, Uppsala, Sweden, and has been characterized elsewhere. P. aeruginosa strains K767 (WT), K1455 (mexAB-oprM overexpressed), K2415 (mexXY-oprM overexpressed), and K3698 (oprM∆) were obtained from Prof. Keith Poole, Queen’s University, Kingston, Ontario, Canada and have been characterized elsewhere. Bacterial cells were grown in cation-adjusted Mueller Hinton (CAMH) media, brain heart infusion broth (BHI), or tryptic soy agar (TSA) plates were all obtained from Becton, Dickinson, and Company (BD; Franklin Lakes, NJ, USA). Aztreonam, ceftazidime, moxifloxacin, levofloxacin, minocycline, tigecycline, chloramphenicol, nitrocefin, and imipenem were purchased from TOKU-E (Bellingham, WA, USA). Azithromycin was purchased from Tokyo Chemical Industry (Portland, OR, USA). Cotrimoxazole was purchased from Toronto Research Chemicals (Toronto, ON, Canada). Doxycycline and polymyxin B were purchased from Sigma-Aldrich (St. Louis, MO, USA). Ethidium bromide (EtBr) and glucose were purchased from VWR (Radnor, PA, USA). MC-04,124 and TXA01182 were synthesized at TAXIS Pharmaceuticals. Carbonyl cyanide 3-chlorophenylhydrazone (CCCP) was purchased from Enzo Life Sciences (Farmingdale, NY, USA). DiOC2 (3) and propidium iodide were obtained from Thermo Fisher Scientific (Waltham, MA, USA).
(§2) MIC assays were performed as described previously.

[2] = system: 34 MDR P. aeruginosa clinical isolates (CDC & FDA AR Isolate Bank); test: microbe, parasite or virus in culture; type: cell-based, Pseudomonas aeruginosa; conditions: for MIC: Pseudomonas aeruginosa, alone or + labelled EPI […] (TXA09155 head: 50 µg/mL)
Description: as §1, with “Aztreonam, ceftazidime, moxifloxacin, levofloxacin, minocycline, tigecycline, chloramphenicol, nitrocefin, and imipenem were purchased from TOKU-E (Bellingham, WA, USA).” left out, “Cotrimoxazole was purchased from Toronto Research Chemicals (Toronto, ON, Canada). Doxycycline and polymyxin B were purchased from Sigma-Aldrich (St. Louis, MO, USA).” left out
as §2

[3] = n: 34, in combination EPI fixed […]

**Q.** How did the MIC ([1]; Pseudomonas aeruginosa, read-out: levofloxacin MIC in the presence of […] TXA09155) turn out when `C[C@H]1COc2c(N3CCN(C)CC3)c(F)cc3c(=O)c(C(=O)O)cn1c23` [Levofloxacin] was run?
**A.** 1 µg/mL

**Q.** What about the “Levofloxacin MIC” value ([1]; levofloxacin alone, strain DA7232) of the same compound?
**A.** 256 µg/mL

**Q.** What about the MIC ([2]; read-out: Levofloxacin MIC, strain AR-0229) of the same compound?
**A.** 64 µg/mL

**Q.** And the MIC ([2]; read-out: Levofloxacin MIC, strain AR-0230)?
**A.** 64 µg/mL

**Q.** And the MIC ([2]; read-out: Levofloxacin MIC, strain AR-0231)?
**A.** 64 µg/mL

**Q.** And the MIC ([2]; read-out: Levofloxacin MIC, strain AR-0232)?
**A.** 8 µg/mL

**Q.** And the MIC ([2]; read-out: Levofloxacin MIC, strain AR-0233)?
**A.** 4 µg/mL

**Q.** What about the MIC ([2]; read-out: Levofloxacin MIC, strain AR-0234) of the same compound?
**A.** 8 µg/mL

**Q.** What about the MIC ([2]; read-out: Levofloxacin MIC, strain AR-0236) of the same compound?
**A.** 32 µg/mL

**Q.** And the MIC ([2]; read-out: Levofloxacin MIC, strain AR-0239)?
**A.** 64 µg/mL

**Q.** What about the MIC ([2]; read-out: Levofloxacin MIC, strain AR-0240) of the same compound?
**A.** 128 µg/mL

**Q.** And the MIC ([2]; read-out: Levofloxacin MIC, strain AR-0241)?
**A.** 64 µg/mL

**Q.** And the MIC ([2]; read-out: Levofloxacin MIC, strain AR-0242)?
**A.** 16 µg/mL

**Q.** What about the MIC ([2]; read-out: Levofloxacin MIC, strain AR-0244) of the same compound?
**A.** 128 µg/mL

**Q.** And the MIC ([2]; read-out: Levofloxacin MIC, strain AR-0245)?
**A.** 128 µg/mL

**Q.** And the MIC ([2]; read-out: Levofloxacin MIC, strain AR-0246)?
**A.** 64 µg/mL

**Q.** And the MIC ([2]; read-out: Levofloxacin MIC, strain AR-0247)?
**A.** 2 µg/mL

**Q.** What about the MIC ([2]; read-out: Levofloxacin MIC, strain AR-0248) of the same compound?
**A.** 16 µg/mL

**Q.** And the MIC ([2]; read-out: Levofloxacin MIC, strain AR-0249)?
**A.** 64 µg/mL

**Q.** What about the MIC ([2]; read-out: Levofloxacin MIC, strain AR-0250) of the same compound?
**A.** 64 µg/mL

**Q.** What about the MIC ([2]; read-out: Levofloxacin MIC, strain AR-0252) of the same compound?
**A.** 32 µg/mL

**Q.** And the MIC ([2]; read-out: Levofloxacin MIC, strain AR-0253)?
**A.** 2 µg/mL

**Q.** What about the MIC ([2]; read-out: Levofloxacin MIC, strain AR-0256) of the same compound?
**A.** 0.5 µg/mL

**Q.** What about the MIC ([2]; read-out: Levofloxacin MIC, strain AR-0258) of the same compound?
**A.** 0.5 µg/mL

**Q.** What about the MIC ([2]; read-out: Levofloxacin MIC, strain AR-0259) of the same compound?
**A.** 0.5 µg/mL

**Q.** What about the MIC ([2]; read-out: Levofloxacin MIC, strain AR-0260) of the same compound?
**A.** 64 µg/mL

**Q.** And the MIC ([2]; read-out: Levofloxacin MIC, strain AR-0261)?
**A.** 8 µg/mL

**Q.** And the MIC ([2]; read-out: Levofloxacin MIC, strain AR-0262)?
**A.** 4 µg/mL

**Q.** What about the MIC ([2]; read-out: Levofloxacin MIC, strain AR-0264) of the same compound?
**A.** 32 µg/mL

**Q.** What about the MIC ([2]; read-out: Levofloxacin MIC, strain AR-0265) of the same compound?
**A.** 64 µg/mL

**Q.** And the MIC ([2]; read-out: Levofloxacin MIC, strain AR-0266)?
**A.** 32 µg/mL

**Q.** What about the MIC ([2]; read-out: Levofloxacin MIC, strain AR-0267) of the same compound?
**A.** 32 µg/mL

**Q.** And the MIC ([2]; read-out: Levofloxacin MIC, strain AR-0269)?
**A.** 32 µg/mL

**Q.** And the MIC ([2]; read-out: Levofloxacin MIC, strain AR-0270)?
**A.** 32 µg/mL

**Q.** What about the MIC ([2]; read-out: Levofloxacin MIC, strain AR-0271) of the same compound?
**A.** 32 µg/mL

**Q.** And the MIC ([2]; read-out: Levofloxacin MIC, strain AR-0272)?
**A.** 16 µg/mL

**Q.** And the “Cumulative Susceptibility % Strains at 0.5” value ([2]; concentration 0.5 µg/ml, n: 34)?
**A.** 9%

**Q.** And the “Cumulative Susceptibility % Strains at 1” value ([2]; concentration 1 µg/ml, n: 34)?
**A.** 9%

**Q.** What about the “Cumulative Susceptibility % Strains at 2” value ([2]; concentration 2 µg/ml, n: 34) of the same compound?
**A.** 15%

**Q.** What about the “Cumulative Susceptibility % Strains at 4” value ([2]; concentration 4 µg/ml, n: 34) of the same compound?
**A.** 21%

**Q.** And the “Cumulative Susceptibility % Strains at 8” value ([2]; concentration 8 µg/ml, n: 34)?
**A.** 29%

**Q.** And the “Cumulative Susceptibility % Strains at 16” value ([2]; concentration 16 µg/ml, n: 34)?
**A.** 38%

**Q.** And the “Cumulative Susceptibility % Strains at 32” value ([2]; concentration 32 µg/ml, n: 34)?
**A.** 62%

**Q.** And the “Cumulative Susceptibility % Strains at 0.06” value ([2]; concentration column 0.06 µg/ml, n: 34)?
**A.** 0%

**Q.** And the “Cumulative Susceptibility % Strains at 64” value ([2]; concentration column 64 µg/ml, n: 34)?
**A.** 91%

**Q.** And the “Cumulative Susceptibility % Strains at 128” value ([2]; concentration column 128 µg/ml, n: 34)?
**A.** 100%

**Q.** What about the “Cumulative Susceptibility % Strains at ≤0.03” value ([2]; concentration column ≤0.03 µg/ml, n: 34) of the same compound?
**A.** 0%

**Q.** And the MIC50 [2, 3]?
**A.** 32 µg/mL

**Q.** And the MIC90 [2, 3]?
**A.** 64 µg/mL

**Q.** What about the “MIC Range” value [2, 3] of the same compound?
**A.** 0.5 to 128 µg/mL

**Q.** And the “MIC Range” value ([2]; n: 34, in combination EPI fixed […], listed as LVX)?
**A.** 0.5 to 128 µg/mL
